Data set [1] has as its system skin S. aureus. The note with it: literature (Murakami et al.); cited from earlier work.
For data set [2], the system named is chicken erythrocytes. The class given is cell-based. The method, then: FIG. 9. Hemolytic Activity of Canine Cathelicidin. The assays were performed with chicken red blood cells as previously described (49). The data shown represent the mean of duplicate values from two independent experiments.
(§1) Hemolytic activity of K9CATH was determined (Skerlavag, FEBS Lett., 463:58 (1999); Yu et al., J. Pept. Res., 60:1 (2002)). Briefly, 4 mL of canine blood was collected in EDTA-containing blood collection tubes (Becton Dickinson, Franklin Lakes, N.J.). Whole blood was then centrifuged at 10,000×g for 1 minute at room temperature. Plasma was discarded (supernatant) and erythrocytes were washed twice with PBS, re-suspended to a 0.5% (vol/vol) solution in PBS, and 90 μL dispensed into 96-well microtiter plates. Different concentrations of K9CATH dissolved in 0.01% acetic acid were added in duplicate to dog cells and incubated at 37° C. for 2 hours. Following centrifugation at 8000×g for 10 minutes, supernatants were transferred to new 96-well microtiter plates and monitored by measuring the absorbance at 405 nm for released hemoglobin. Controls for 0 and 100% hemolysis consisted of cells suspended in PBS only and in 1.0% Triton X-100, respectively. Percentage of hemolysis (%) was calculated as [(OD415 nm, peptide solution−OD415 nm, PBS only)/(OD415 nm, 1% Triton X-100−OD 415 nm, PBS only)]×100. […]

The test system of data set [3] is dog erythrocytes. Format: cell-based. As to the method:
as §1, with “only)]×100. The N-terminal 18 amino acid segment of bovine myeloid antimicrobial peptide 28 (BMAP-28(1-18)) (Skerlavaj et al., J. Biol. Chem., 271:28375 (1996); Yu et al., J. Pept. Res., 60:1 (2002); Risso et al., Cell. Immunol., 189:107 (1998)) was used as a positive control.” for “only)]×100.”

Data set [4] has as its system Escherichia coli. Format: cell-based. From the text: (§2) Microorganisms against which a polypeptide of the invention is active include prokaryotic and eukaryotic cells such as Gram-negative and Gram-positive bacteria, yeast and protozoa. Non-limiting examples include Listeria monocytogenes, Staphylococcus aureus, Escherichia coli, Klebsiella pneumoniae, Salmonella typhimurium, Pseudomonas aeruginosa, Proteus mirabilis, Salmonella enteritidis, Neisseria gonorrhoeae, Ureaplasma canigenitalium, Ureaplasma urealyticum, Candida albicans, Trichomonas vaginalis, Treponema pallidum or Chlamydia trachomatis, or a spoilage organism. […] MIC antimicrobial activity refers to complete inhibition of the growth of a microorganism, as judged by the naked eye, after a selected period of incubation. The method used to determine MIC is that set forth in Sang et al., Infection and Immunity, 2611-20 (May, 2005).
(§3) Microorganisms evaluated were: Candida albicans ATCC 11006 and 14053, Escherichia coli ATCC 25922, 700336, 700378, and BAA-457, Klebsiella pneumoniae ATCC 10031, Listeria monocytogenes ATCC 19155, Proteus mirabilis ATCC 12453, Pseudomonas aeruginosa ATCC 10145, Salmonella Enteritidis ATCC 13076, Salmonella Typhimurium ATCC 13311, Staphylococcus aureus ATCC 10832, Ureaplasma canigenitalium ATCC 51252, and Ureaplasma urealyticum ATCC 27619. C. albicans was grown overnight (35° C.) on potato dextrose agar and managed according to NCCSL standards (Pfaller et al., Manual NCCLS #M27-A2, 6th ed., Wayne, Pa. (2002)). U. canigenitalium and U urealyticum were stored at −20° C. in urea broth 10B (per ATCC specifications) and thawed at 5° C. the night prior to assay. All other bacteria were maintained on trypticase soy agar (Difco, Detroit, Mich.) plates at 37° C. Mid-logarithmic phase bacteria were grown by transferring single cell colonies into trypticase soy broth (Difco), followed by incubation and homogenization for 3 hours at 37° C. Bacterial pellets were obtained after centrifugation for 10 minutes at 4° C. at 900×g, and washed once, followed by suspension in 10 mM sodium phosphate buffer (PB, pH 7.4, [Na+]=17.83 mM). Initial bacterial concentrations were determined (Ferraro et al., Manual NCCLS #M7-A6, 6th ed., Wayne, Pa. (2003)). Initial bacterial populations of 10^8 CFU/mL were obtained at an optical density (OD) of 0.1 at 600 nm. C. albicans were suspended in 10 mM PB to a McFarland standard of 0.5 for an initial 10^8 CFU/ml following NCCLS standards (Pfaller et al., Manual NCCLS #M27-A2, 6th ed., Wayne, Pa. (2002)), except that the recommended 0.85% saline solution was replaced with 10 mM PB. All microbial serial dilutions were performed in 10 mM PB to obtain 10^3 CFU/mL working dilutions.
(§4) A modified broth microdilution method (Pfaller et al., Manual NCCLS #M27-A2, 6th ed., Wayne, Pa. (2002); Ferraro et al., Manual NCCLS #M7-A6, 6th ed., Wayne, Pa. (2003)) was used to determine the antimicrobial activity of K9CATH (Sang et al., Infect. Immun., 73:2611 (2005)). Briefly, 50 μL of the K9CATH working stocks were added to the wells of a microtiter plate in which 25 μL of 30 mM sodium PB (pH 7.4, [Na+]=53.49 mM), 25 μL H2O, and 50 μL of the microbial suspension had been previously combined. Microtiter plates were incubated at 37° C. for 2 hours in a shaking incubator (100 RPM), followed by the addition of 150 μL of the corresponding nutritive broth. Antimicrobial activity was determined by establishing the minimal inhibitory concentrations (MIC), defined as the lowest concentration in which microbial growth was prevented, as indicated by the lack of turbidity or color change in the medium (urea broth 10B) after 24 hours of incubation at 37° C. Treated gonorrheal suspension (50 μL) was spot-plated on chocolate agar, and the MIC was defined as the lowest concentration in which no colonies developed after 24 hours of incubation at 37° C. in 5% CO2. […]

Data set [5] has as its system Listeria monocytogenes. The class given is cell-based.
From the text: as §2, §3, §4

The subject of data set [6] is Pseudomonas aeruginosa. Format: cell-based.
From the text: as §2, §3, §4

The test system of data set [7] is Ureaplasma urealyticum. Format: cell-based.
From the text: as §2, §3, §4

Data set [8] deals with Proteus mirabilis. Format: cell-based.
From the text: as §2, §3, §4

In data set [9] the test system is Salmonella Enteritidis. The class given is cell-based.
From the text: as §2, §3, §4

Data set [10] deals with Salmonella Typhimurium. The class given is cell-based.
From the text: as §2, §3, §4

The subject of data set [11] is Klebsiella pneumoniae. Format: cell-based.
From the text: as §2, §3, §4

These results are taken from patent US7985832B2, “Antimicrobial cathelicidin peptides” (Kansas State University Research Foundation, priority 2005, dated 2011).

Ends that are not written are not given here.

For the substance “LL-37: human cathelicidin antimicrobial peptide (LLGDFFRKSKEKIGKEFKRIVQRIKDFLRNLVPRTES; Antibacterial peptide LL-37; UniProt P49913 134-170, looked up)”, the “concentration inhibiting skin S. aureus” value in data set [1] was over 64 µM.

Turning to “RLKELITTGGQKIGEKIRRIGQRIKDFFKNLQPREEKS [K9CATH]”, the “lower in vitro hemolytic activity compared to BMAP-18” value in [2] and in data set [3] was 10-20 fold throughout. Further, the MIC (in general, the smallest concentration in the dilution series that meets the test's criterion for growth inhibition) came to 1.11 µM in [4]; 0.44 µM in data set [5]; 1.11 µM in data set [6]; 44.33 µM in data set [7]; 1.11 µM in data set [8]; 0.44 µM in data set [9]. Also, the MIC in [10] and in data set [11] was 1.11 µM in each case.
